Experimental data taken from patent US20160160267A1, “COMPOSITION FOR EVALUATING OR PREDICTING PATIENTS THERAPEUTIC RESPONSE TO METHORMIN” (SNU R&DB FOUNDATION, priority 2013, published 2016).

How the values were obtained:
[1] = system: MCP-1 (Monocyte chemoattractant protein-1); assay: Expression of MCP-1 in epididymal adipose tissue, quantitative PCR relative to GAPDH; format: in vivo, mouse (C57BL/6); details: male, metformin during high-fat diet, P=0.008
Protocol: (§1) FIG. 4a to FIG. 5b comparatively analyze the amount of gene expression of internal control GAPDH and biomarkers using relative quantification method (2^−ΔΔCt(ΔΔCt=(Ct.Target−Ct.GAPDH)Group1−(Ct.Target−Ct.GAPDH)Group2)). Statistical significance is assessed by Mann-Whitney U Test. For quantification, SYBR qPCR was repeatedly conduced three times.
(§2) Basically, body weight and fasting glucose were confirmed once a week. To confirm impaired glucose tolerance, oral glucose tolerance test (OGTT) was conducted. And, total cholesterol, high-density lipoprotein (HDL), low-density lipoprotein (LDL) were analyzed in serum, and insulin concentration in blood was measured using flow cytometry. To grasp the expression degree of metabolic and inflammatory factors, liver, epididymal adipose tissue, small intestine were homogenized to extract total RNA, which was quantitatively analyzed by polymerase chain reaction (PCR). In the liver, AMPKα1 (AMP-activated protein kinase alpha 1), PPARα (Peroxisome proliferator-activated eceptor alpha), GLUT2 (Glucose transporter 2), G6Pase (Glucose 6-phosphatase) were measured; in the adipose tissue, adiponectin, leptin, MCP-1 (Monocyte chemoattractant protein-1), TNFα (Tumor necrosis factor alpha) IL-6 (Interleukin-6) were measured; and in the small intestine, MUC2 and MUC5 (Mucin genes) were measured. […]

[2] = Metabolism-related index (body weight, fasting glucose, serum total cholesterol, HDL) in high-fat diet mouse; format: in vivo, mouse (C57BL/6); details: high-fat diet mice
Protocol: Basically, body weight and fasting glucose were confirmed once a week. To confirm impaired glucose tolerance, oral glucose tolerance test (OGTT) was conducted. And, total cholesterol, high-density lipoprotein (HDL), low-density lipoprotein (LDL) were analyzed in serum, and insulin concentration in blood was measured using flow cytometry. To grasp the expression degree of metabolic and inflammatory factors, liver, epididymal adipose tissue, small intestine were homogenized to extract total RNA, which was quantitatively analyzed by polymerase chain reaction (PCR). In the liver, AMPKα1 (AMP-activated protein kinase alpha 1), PPARα (Peroxisome proliferator-activated eceptor alpha), GLUT2 (Glucose transporter 2), G6Pase (Glucose 6-phosphatase) were measured; in the adipose tissue, adiponectin, leptin, MCP-1 (Monocyte chemoattractant protein-1), TNFα (Tumor necrosis factor alpha) IL-6 (Interleukin-6) were measured; and in the small intestine, MUC2 and MUC5 (Mucin genes) were measured. For comparative analysis of the expression degree, relative quantification using housekeeping gene GAPDH was applied, and statistical significance was confirmed with Mann-Whitney U test. As the primer for MUC5AC, QuantiTect® Primer Assay (Cat. no.: QT01161104, Qiagen) was used.

MUC2 = assay: Expression of mucin gene MUC2 in small intestine; format: in vivo, mouse (C57BL/6); details: female, after administration of metformin
Protocol: as §1, §2

[3] = system: GLUT2 (Glucose transporter 2); assay: Expression of GLUT2 in liver, quantitative PCR relative to GAPDH; format: in vivo, mouse (C57BL/6); details: female, metformin during high-fat diet, P=0.007
Protocol: as §1, §2

[4] = Tissue inspection (tissue weights, H&E staining, steatosis); details: metformin during high-fat diet, compared to high-fat diet group
Text: Male and female C57BL/6 species of the same age of the week were purchased from Orientbio. […] Epididymis adipose tissue, liver, small intestine, pancreas, and blood were extracted, and among them, liver, small intestine, and pancreas were fixed to 4% paraformaldehyde to conduct hematoxylin and eosin (H&E) staining. Briefly, tissue was cut to 4 μm, stained with alum haematoxylin and rinsed with water flow. Thereafter, the colour was changed with 0.3% acid alcohol, followed by additional staining with eosin, dehydrating and fixing. The degree of steatosis and inflammation of the tissue was read by pathologist.

[5] = system: TNFα (Tumor necrosis factor alpha); assay: Expression of TNFα in epididymal adipose tissue, quantitative PCR relative to GAPDH; format: in vivo, mouse (C57BL/6); details: female, metformin during high-fat diet, P=0.001
Protocol: as §1, §2

[6] = system: G6Pase (Glucose 6-phosphatase); assay: Expression of G6Pase in liver, quantitative PCR relative to GAPDH; format: in vivo, mouse (C57BL/6); details: male, metformin during high-fat diet
Protocol: as §1, §2

PPARα = assay: Expression of PPARα in liver, quantitative PCR relative to GAPDH; format: in vivo, mouse (C57BL/6); details: female, metformin during high-fat diet, P=0.008
Protocol: as §1, §2

[7] = system: rumen microorganism communities; assay: Analysis of rumen microbiome in feces samples (16S rRNA V2-V3 pyrosequencing, UniFrac, PCoA, LEfSe); format: in vivo, mouse (C57BL/6)
Protocol: Total genome DNA of bacteria in the feces sample was extracted using a kit. The V2 region and the V3 region of 16S rRNA gene were amplified through PCR using bar coded universal primer as described in Table 3 and Table 4, and pyrosequencing was conducted using GS-FLX system. For the secured nucleotide sequence, data was analyzed using QIIME (Quantitative Insights Into Microbial Ecology) 1.5.0 (http://qiime.sourceforge.net). Before the sequence analysis, noise removal of the sequence data set was conducted, and low quality sequence less than 200 bp was removed. To the nucleotide sequence, OUT (Operational taxonomic units) was assigned based on 97% analogous level to conduct system analysis. For the nucleotide sequence obtained from each feces sample, UniFrac, PCoA (Principal Coordinate Analysis), LEfSe (LDA Effect Size) analysis were conducted for comparative analysis. And, based on the KEGG (Kyoto Encyclopedia of Genes and Genomes) pathway data from microbiome, PICRUSt (Phylogenetic Investigation of Communities by Reconstruction of Unobserved States) was conducted to predict a specifically increasing metabolic pathway.

leptin = assay: Expression of leptin in epididymal adipose tissue, quantitative PCR relative to GAPDH; format: in vivo, mouse (C57BL/6); details: male, metformin during high-fat diet, P=0.004
Protocol: as §1, §2

MUC5 = assay: Expression of mucin gene MUC5 in small intestine; format: in vivo, mouse (C57BL/6); details: female, after administration of metformin
Protocol: as §1, §2

[8] = system: AMPKα1 (AMP-activated protein kinase alpha 1); assay: Expression of AMPKα1 in liver, quantitative PCR relative to GAPDH; format: in vivo, mouse (C57BL/6); details: female, metformin during high-fat diet, P=0.023
Protocol: as §1, §2

[9] = 10 weeks after metformin administration
[10] = after administration of metformin (300 mg/kg daily, oral)
[11] = after administration of metformin during high-fat diet

Compound: CN(C)C(=N)NC(=N)N [metformin, N,N-Dimethylimidodicarbonimidic diamide]
- MCP-1 expression in epididymal adipose tissue [1]: increased
- high density lipoprotein (HDL) [2, 9]: significantly decreased
- total cholesterol [2, 9]: significantly decreased
- blood glucose (fasting glucose) [2, 10]: significantly decrease
- body weight [2, 10]: significantly decrease
- expression degree of MUC2 in small intestine (MUC2): significantly increased
- GLUT2 expression in liver [3]: decreased
- liver steatosis [4]: significant difference
- weight of adipose tissue [4]: significantly decreased
- weight of liver [4]: significantly decreased
- TNFα expression in epididymal adipose tissue [5]: significantly decreased
- G6Pase expression in liver [6]: significantly decreased
- PPARα expression in liver (PPARα): increased
- proportion of phylum Proteobacteria [7, 11]: 2.1±2.8%
- proportion of phylum Verrucomicrobia [7, 11]: 12.4±5.3%
- proportion of phylum Bacteroidetes ([7]; high-fat diet, after administration of metformin): 77.5±8.7%
- microbial diversity in feces ([7]; metformin administration during high-fat diet): decreased
- microbial diversity in feces ([7]; metformin administration during normal diet): did not cause any change in diversity
- Akkermansia abundance, at species level ([7]; metformin during high-fat diet): significantly increased
- Bacteroides abundance, at species level ([7]; metformin during high-fat diet): significantly increased
- relative bacterial abundance by LDA scores, genus Akkermansia ([7]; metformin during high-fat diet): increased
- relative bacterial abundance by LDA scores, genus Blautia ([7]; metformin during high-fat diet): increased
- relative bacterial abundance by LDA scores, genus Clostridium ([7]; metformin during high-fat diet): decreased
- relative bacterial abundance by LDA scores, genus Shigella ([7]; metformin during high-fat diet): increased
- UniFrac distance to the group treated with high-fat diet only ([7]; metformin during high-fat diet, versus difference of the diet-change group (HFD-ND) to HFD only): larger
- relative bacterial abundance, Alistipes ([7]; metformin during normal diet): increased
- relative bacterial abundance, Lactobacillus iners ([7]; metformin during normal diet): relatively decreased
- relative bacterial abundance, genus Akkermansia ([7]; metformin during normal diet): significantly increased
- relative bacterial abundance, genus Clostridium ([7]; metformin during normal diet): significantly increased
- leptin expression in epididymal adipose tissue (leptin): increased
- expression degree of MUC5 in small intestine (MUC5): significantly increased
- AMPKα expression in liver [8]: decreased
